Data set [1] relates to Escherichia coli. Kind of data set: Bacteriostatic activity against Escherichia coli ATCC 25922 at 1XMIC incubated for 4 hrs followed by plating on MHII agar pate for 24 hrs. Conditions: time 28.0 hrs. Type of data set: functional, organism-based.
Data set [2] deals with trypsin (Homo sapiens, UniProt P07477+P07478+P35030). Kind of data set: Stability of compound assessed as trypsin (unknown origin)-mediated compound degradation by measuring parent compound remaining at 150 uM measured upto 4 hrs by RP-HPLC method. The data set is classed as ADME, protein assay. The conditions noted are these: read-out: Stability.
Data set [3] has as its system Staphylococcus epidermidis. Kind of data set: Antibacterial activity against methicillin-resistant Staphylococcus epidermidis ATCC 51625 assessed as reduction in bacterial growth measured after 18 hrs by broth microdilution method. The data set is classed as functional. (In broth dilution the organism is exposed to a series of concentrations in liquid medium.)
Data set [4] deals with Staphylococcus aureus. Nature of the data set: Additive antibacterial activity against MDR-methicillin-resistant Staphylococcus aureus ATCC BAA-44 assessed as rifampicin MIC by checkerboard assay. Type of data set: functional.
The test system of data set [5] is Staphylococcus aureus. Kind of data set: In vivo antibacterial activity against Staphylococcus aureus ATCC 25923 infected in BALB/c mouse model assessed as reduction of bacterial load in liver at 5 mg/kg, ip administered as single dose measured after 24 hrs by colony counting based analysis (reference value: 8.1X10^4 CFU). The data set is classed as functional.

Data set [6] concerns Staphylococcus aureus. Kind of data set: Additive antibacterial activity against MDR-methicillin-resistant Staphylococcus aureus ATCC BAA-44 assessed as chloramphenicol MIC by checkerboard assay. Type of data set: functional.
The test system of data set [7] is Staphylococcus aureus. Nature of the data set: Additive antibacterial activity against MDR-methicillin-resistant Staphylococcus aureus ATCC BAA-44 assessed as fractional inhibitory concentration index in presence of chloramphenicol by checkerboard assay. Type of data set: functional.
For data set [8], the system named is Staphylococcus aureus. Kind of data set: Synergistic antibacterial activity against MDR-methicillin-resistant Staphylococcus aureus ATCC BAA-44 assessed as ampicillin MIC by checkerboard assay. The data set is classed as functional.
In data set [9] the test system is Erythrocyte. Kind of data set: Hemolytic activity against human RBC assessed as hemolysis upto 100 uM incubated for 1 hr by ELISA plate reader analysis. The data set is classed as toxicity, cell-based.
The test system of data set [10] is Staphylococcus aureus. Kind of data set: Synergistic antibacterial activity against MDR-methicillin-resistant Staphylococcus aureus ATCC BAA-44 assessed as chloramphenicol MIC by checkerboard assay. Type of data set: functional.
In data set [11] the test system is Cell membrane. Nature of the data set: Disruption of bacterial cell membrane in Escherichia coli ATCC 25922 assessed as proportion of bacteria with intact cell membrane at 5X MIC incubated for 1 hr by PI staining based flow cytometric analysis (reference value: 99.3%). The data set is classed as subcellular. A general note: Flow cytometry measures light scatter and fluorescence of single cells or particles in a stream.

Data set [12] deals with Staphylococcus aureus. Nature of the data set: Additive antibacterial activity against MDR-methicillin-resistant Staphylococcus aureus ATCC BAA-44 assessed as fold change in tetracycline MIC by checkerboard assay. Type of data set: functional.
The subject of data set [13] is Staphylococcus aureus. Kind of data set: Additive antibacterial activity against MDR-methicillin-resistant Staphylococcus aureus ATCC BAA-44 assessed as fold change in chloramphenicol MIC by checkerboard assay. Type of data set: functional.
For data set [14], the system named is Staphylococcus aureus. Nature of the data set: In vivo antibacterial activity against Staphylococcus aureus ATCC 25923 infected in BALB/c mouse model assessed as reduction of bacterial load in kidney at 5 mg/kg, ip administered as single dose measured after 24 hrs by colony counting based analysis (reference value: 2X10^4 CFU). Type of data set: functional.

Data set [15] relates to Staphylococcus aureus. Kind of data set: Additive antibacterial activity against MDR-methicillin-resistant Staphylococcus aureus ATCC BAA-44 assessed as fractional inhibitory concentration index in presence of rifampicin by checkerboard assay. Type of data set: functional.
For data set [16], the system named is Cell membrane. Kind of data set: Disruption of bacterial cell membrane in Escherichia coli ATCC 25922 assessed as blebbing on the surface of the bacteria at 5XMIC by SEM analysis. The data set is classed as subcellular.

≈ marks a conversion by molar mass, not a printed value. Calls of active or inactive are those of the source. The calls are words filed in the database; no cut-off is given here. Where a SMILES comes first, the peptide text is derived from it. The star is where a group is joined. Lauroyl = CCCCCCCCCCCC(=O)*; Decanoyl = CCCCCCCCCC(=O)*; Spermine = NCCCNCCCCNCCCN*

A word on the MIC: it is the least concentration at which growth counts as inhibited.

In the case of `CCCCCCCCCC(=O)N1CCC[C@H]1C(=O)N[C@@H](CCCNC(=N)N)C(=O)N1CCC[C@H]1C(=O)N[C@@H](CCCNC(=N)N)C(=O)N1CCC[C@H]1C(=O)N1CCC[C@H]1C(=O)N[C@@H](CCCNC(=N)N)C(=O)NCCCNCCCCNCCCN` (Decanoyl-PRPRPPR-Spermine), in data set [1], the result was Active. The remaining at 4 h, 150 µM in data set [2] was > 80%. Further, the MIC in data set [3] was 3.1 µM (≈ 3.76 µg/mL); in [4] it was 0.625 µg/mL; in data set [6], 1000 µg/mL; in [8], 7.81 µg/mL; in [10], 1000 µg/mL. For the same compound, the Activity in data set [5] is <4 10^2CFU; in [9], “Non-Toxic”; in data set [11], 90.4%; in [14], <4 10^2CFU. Also, the “fractional inhibitory concentration index (FICI)” value worked out at 2 in data set [7] and 0.625 in data set [15]. Moreover, the “fold change (FC)” value is reported as 2 in data set [12] and 1 in data set [13].

As to `CCCCCCCCCCCC(=O)N1CCC[C@H]1C(=O)N[C@@H](CCCNC(=N)N)C(=O)N1CCC[C@H]1C(=O)N[C@@H](CCCNC(=N)N)C(=O)N1CCC[C@H]1C(=O)N1CCC[C@H]1C(=O)N[C@@H](CCCNC(=N)N)C(=O)NCCCNCCCCNCCCN` (Lauroyl-PRPRPPR-Spermine), the result in data set [1] and in [16] was Active. In [2], the remaining at 4 h, 150 µM was > 80%. Moreover, the MIC amounted to 1.5 µM (≈ 1.86 µg/mL) in data set [3], 0.625 µg/mL in data set [4], 3.9 µg/mL in data set [8] and 250 µg/mL in [10]. Besides, the Activity was <4 10^2CFU in data set [5], “Non-Toxic” in data set [9], 72.7% in [11] and <4 10^2CFU in [14]. The “fold change (FC)” value in data set [12] is listed as 2. Moreover, the “fractional inhibitory concentration index (FICI)” value in data set [15] was found to be 1.

The record behind these values is ChEMBL document CHEMBL5154803, “Spermine-Conjugated Short Proline-Rich Lipopeptides as Broad-Spectrum Intracellular Targeting Antibacterial Agents” (J Med Chem, 2022).
